One data set has as its system HeLa or Vero cells. Particulars: ref Akkarawongsa et al., 2006; cited from earlier work.
The test system of the next data set is Vaccinia virus. The following applies: 1 h.
In another data set the test system is Vero cells. Particulars: concentrations as high as 100 μM; ref Akkarawongsa et al., 2006; cited from earlier work.
A further data set concerns mouse corneas. Particulars: applied at a concentration of 6.1 mM; ref Akkarawongsa et al., 2006; cited from earlier work.
The subject of data set [1] is HeLa cells. As to the kind of experiment: Cytotoxicity after low pH wash. Type of data set: cell-based. Particulars: PBS pH 7 or 5, 150 μM EB 1 hr 37°C, n = 6.
The subject of the next data set is vMJ343. The following applies: 1 h.
The subject of data set [2] is recombinant vaccinia virus vMJ343. The following applies: 1 h.
Data set [3] relates to HeLa cells. Particulars: concentrations as high as 100 μM; ref Akkarawongsa et al., 2006; cited from earlier work.

No end group written: not given here.

As usually defined, the EC50 is the concentration that produces a half-maximal response. Consider “RRKKLAALPLVLAAPLAVLA [EBX, reference compound]”, for which, in the data set with HeLa or Vero cells, the “CC50 (50% cytotoxic concentration)” value is more than 100 µM. The EC50 in the data set on Vaccinia virus came to 150 µM.

Consider RRKKAAVALLPAVLLALLAP [EB], for which, in the data set with Vero cells, the “Cytotoxicity to Vero cells” value is on record as “not cytotoxic”. Besides, the “Cytotoxic effects on mouse corneas” value in the data set on mouse corneas was “no cytotoxic effects”. For the same sequence, the “Toxicity of low pH treatment and subsequent EB exposure” value with HeLa cells [1] is reported as “not toxic to the cells”. The EC50 in the data set with vMJ343 was approximately 45 µM; with Vaccinia virus, 15 µM; in data set [2] it was 45 µM. Further, the “CC50 (50% cytotoxic concentration)” value in the data set on HeLa or Vero cells was more than 100 µM. Besides, the “Cytotoxicity to HeLa cells” value with HeLa cells [3] is given as “not cytotoxic”.

(Values after publication PMC2923446 (Virology, 2009).)
